# Results taken from patent US8618178B2, “Method and substances for treating T-cell mediated autoimmune diseases” (Eberhard-Karls-Universitaet Tuebingen Universitaetsklinikum, priority 2006, dated 2013).
# Where a name gives a salt, the structure may show the parent alone.
# Key:
# [1] = tested on: PLP-specific CD4+ T cells; test: ELISPOT cytokine analysis of PLP-specific CD4+ T cells from draining lymph nodes of fed mice; format: in vivo, SJL mice; settings: 6 days after immunization, ELISPOT IL-4 / IFN-γ
# Experimental: (§1) Spleen and lymph node CD4^+ T cells were stimulated with PLP (proteolipid protein) peptide 139-151 (10 μg/ml) and stimulated for four days with irradiated SJL-APC in the presence or absence of L-BSO (0.5 mM, Sigma), expanded for three to four days and then restimulated for cytokine production (proteolipid protein is the commonest myelin protein in the central nervous system and plays an important part as an autoantigen in the onset of multiple sclerosis). Next, 10^7 sham (control) or L-BSO treated T cells were injected intraperitoneally into naive SJL mice and the EAE developing as a result was observed. […] For the cytokine analysis of PLP-specific T cells, the draining lymph nodes of the SJL mice were removed 6 days after the immunization and CD4^+ T cells antigen-specifically analyzed (ELISPOT). […] After washing with H2O, the number of spots was determined in the ELISPOT reader (Biosys).
# In order further to study whether GSH deprivation can also influence the differentiation and pathogenicity of autoreactive T cells in vivo, mice were fed with DMF or L-BSO in the drinking water, and the control group only with drinking water. […] 6 days after immunization, the draining lymph nodes of the mice were analyzed. For this, the CD4^+ T cells were isolated and the cytokine production of PLP-specific T cells measured using ELISPOT after in vitro stimulation.
# [2] = tested on: IL-10; test: IL-10 production by DC, ELISA of culture supernatants; format: cell-based, mouse
# Experimental: (§2) IL-4, IL-10, IL-12 and interferon-γ were determined using the ELISA (enzyme linked immunosorbent assay) set or with the use of individual components from BD BioSciences. IL-23 in the supernatant was determined using the ELISA set (eBioscience). For intracytoplasmic cytokine analyses, the T cells were restimulated with PMA/ionomycin or with APC and peptide in the presence of brefeldin A, then fixed and permeabilized and stained. For the surface staining, anti-CD4 or KJ1-26 antibodies were used; the cytokine antibodies (PE labeled) were all obtained from BD Pharmingen.
# As antigen presenting cells (APC), T cell depleted spleen cells from syngenic mice were used. Dendritic cells (DC) which were obtained from bone marrow (BMDC) and cultured with GM-CSF were used for the relevant experiments on day 7 of culturing. For the experiment, in each case an equal number of APC were cultured either with the medium alone, with L-BSO (C8H18N2O3S, 0.5 mM), dimethyl sulfoxide DMSO(C2H6OS), dimethyl fumarate DMF (C6H8O4, dissolved in DMSO, 70 μM), or calcium monomethyl fumarate (MMF; CaC10H10O8, 200 μM). […] At the respective stated times (see below) the cells were either analyzed directly for their GSH content, used for T cell stimulation or stimulated for […] with Escherichia coli lipopolysaccharides 055.B5 (Sigma-Aldrich) or CpG-DNA 1668 (MWG Biotech) and IL-4 (Stratmann). […]
# [3] = tested on: human DC; test: GSH determination in human DC in vitro; format: cell-based
# Experimental: Cellular GSH and GSSG were determined in micro-titer plate assays using colorimetric methods. The cellular GHS content is determined as a percentage of the GSH levels in freshly prepared controls or as pmol 10^−6 cells. GSSG was not detectable.
# DC from human bone marrow (BMDC) (CD14^+) were isolated using MACS (Miltenyi Biotech) and incubated for seven days with IL-4 (500 U/ml, R & D Systems) and GM-CSF (Granulocyte-Monocyte Colony Stimulating Factor) (1000 U/ml (Immunonex)). GSX determination as under 1.3.
# [4] = tested on: IL-23; test: IL-23 production by DC, ELISA of culture supernatants; format: cell-based, mouse
# Experimental: as §2
# As antigen presenting cells (APC), T cell depleted spleen cells from syngenic mice were used. Dendritic cells (DC) which were obtained from bone marrow (BMDC) and cultured with GM-CSF were used for the relevant experiments on day 7 of culturing. For the experiment, in each case an equal number of APC were cultured either with the medium alone, with L-BSO (C8H18N2O3S, 0.5 mM), dimethyl sulfoxide DMSO(C2H6OS), dimethyl fumarate DMF (C6H8O4, dissolved in DMSO, 70 μM), or calcium monomethyl fumarate (MMF; CaC10H10O8, 200 μM). All substances except for MMF (Fumapharm) were purchased from Sigma-Aldrich. At the respective stated times (see below) the cells were either analyzed directly for their GSH content, used for T cell stimulation or stimulated for […] with Escherichia coli lipopolysaccharides 055.B5 (Sigma-Aldrich) or CpG-DNA 1668 (MWG Biotech) and IL-4 (Stratmann). In order to raise the GSH level again, 1 mM GSH-OEt (C12H21N3O6S; Sigma-Aldrich) or 1 mM NAC (Sigma-Aldrich) was added. The GSH reservoirs in mice were depleted by feeding with DMF or MMF, and in man by treatment with Fumaderm®.
# [5] = tested on: ovalbumin-specific CD4+ T cells; test: Priming of ovalbumin-specific CD4+ T cells with treated DC, IFN-γ and IL-4 by ELISA; format: cell-based, mouse; settings: restimulated with fresh APC and antigen
# Experimental: as §2
# (§3) The CD4+ T cells of DO11.10 mice were sorted using MACS magnet beads (Miltenyi Biotech). By culturing of DC on day seven with either medium and DMSO or DMF for 2 hours, DC^GSHhigh or DC^GSHlow could be generated. After four-hour stimulation with LPS or CpG-DNA/IL-4, the DC^GSHhigh or DC^GSHlow were used for the stimulation of DO11.10 T cells with 10 μg/ml ovalbumin peptide 323-339 for two days. The T cells were expanded with 50 U/ml IL-2 (Chiron Therapeutics). The cells were washed on day 10 and restimulated with fresh APC. The analysis was performed with the supernatants after 24 hrs. CD4^+ T cells were obtained from SJL mice immunized with PLP peptide using MACS magnet beads and stimulated with irradiated APC and PLP peptide 139-151 in the presence of L-BSO, DMF or only in medium as control. […]
# [6] = tested on: PLP-specific T cells; test: In vitro stimulation of PLP-specific T cells under GSH deprivation; format: cell-based, mouse
# Experimental: as §3, with “hrs.” for “hrs. CD4^+ T cells were obtained from SJL mice immunized with PLP peptide using MACS magnet beads and stimulated with irradiated APC and PLP peptide 139-151 in the presence of L-BSO, DMF or only in medium as control.”
# as §1, with “sclerosis).” for “sclerosis). Next, 10^7 sham (control) or L-BSO treated T cells were injected intraperitoneally into naive SJL mice and the EAE developing as a result was observed.”
SMILES,cytokine pattern of PLP-specific CD4+ T cells [1],IL-10 production in DC [2],GSH in human DC [3],lowering of LPS-induced IL-23 production in DC cultivated from bone marrow ([4]; LPS-induced),"IL-23 production by DC ([4]; after stimulation with LPS, compared to controls (DMSO))",IFN-γ production of TH cells induced by treated DC [5],IL-4 production of TH cells induced by treated DC [5],differentiation of PLP-specific T cells to Th1 and Th-17 [6],differentiation of PLP-specific T cells towards Th2 [6]
"COC(=O)/C=C/C(=O)OC [DMF, dimethyl fumarate]",TH2-like pattern,rise in IL-10 production,depletes GSH,"up to 10,000 fold",markedly less,little IFN-γ,much IL-4,inhibits the differentiation of Th1 and Th-17,promotes the differentiation towards Th2
"CCCCS(=N)(=O)CCC(N)C(=O)O [L-BSO, L-buthionine sulfoximine]",TH2-like pattern,,,,,,,,
